Measured values as given in patent US8937167B2 (Washington University, priority 2009, dated 2015).

Tests used:
FimH lectin domain = target: T1, FimH lectin domain (Escherichia coli, UniProt P08191); test: biochemical; assay type: binding, E. coli
T1 construct: made by biotinylating FimH lectin domain^25 at a 1:1 molar ratio with NHS-PEO4-Biotin
Experimental: Samples or buffer (200 μL per well) were dispensed into 96-well microtiter plates (Greiner Bio-One, Monroe N.C.) and maintained at 30° C. with 1000 RPM shaking. Pre-manufactured pins for individual assays were made by biotinylating FimH lectin domain^25 at a 1:1 molar ratio with NHS-PEO4-Biotin (Thermo Fisher, Rockford Ill.), diluting it to 50 μg/ml in 20 mM HEPES pH 7.5, 150 mM NaCl (HBS), immobilizing it on high-binding streptavidin-coated biosensor tips (Super Streptavidin, ForteBio, Inc., Menlo Park, Calif.) for 10 minutes at 30° C., blocking the pins with 10 μg/ml biocytin for 2 minutes, washing in HBS for 1 hour, and rinsing in 15% sucrose in HBS. Pins were then air dried for 30 minutes and stored in their original packaging with a dessicant packet. Assays were performed by re-wetting premade pins with HBS for 15 minutes, then storing them in fresh HBS until use. […] Each experimental pin was referenced to a biocytin-blocked pin to control for instrument drift and a second biocytin-blocked pin that was passed through a duplicate experiment in the same 96-well plate to control for nonspecific binding of the compound to the pin. Kinetics data and affinity constants were generated automatically by the global fitting protocol in ForteBio Data Analysis version 6.3.

[1] = target: T2, FimH lectin domain (residues 1-158 of UPEC J96 FimH) (Escherichia coli, UniProt P08191); assay type: binding; conditions: Table 20; compound at 100 μM
T2 construct: made in house
Experimental: DSF measures the melting temperature change of protein when binding to small molecules. Melting temperature shifts are proportional to the free energy of binding, and melting temperatures increase even as ligand concentration exceeds the Kd.
FimH lectin domain (residues 1-158 of UPEC J96 FimH, without an affinity tag) was purified as described previously. Five micrograms FimH in 5 μl HBS were mixed with HBS to yield a final volume of 50 μl containing compound at a final concentration of 100 μM and a “5×” final concentration of SYPRO Orange (sold as a “5000×” stock in DMSO and mixed with HBS to a working stock of 50× immediately before use: Life Technologies Inc.; Grand Island, N.Y.). Compounds were diluted to 100 μM from stocks in DMSO and compared to matched control wells with FimH alone plus 0.2% DMSO. 50 μl reactions were placed in 96-well clear-bottom PCR plates and subjected to a melt curve from 20-90° C. in 0.5° C. increments of 15 seconds each followed by a fluorescence read of the “HEX” channel in a Bio-Rad CFX96 thermocycler (Bio-Rad, Hercules, Calif.). Melt curves were fitted to the Boltzmann equation to determine the melting temperature (Tm) (y=A2+(A1−A2)/(1+exp((x−x0)/dx)) where x0 is the Tm) using OriginPro 8 (OriginLab, Northampton Mass.).

[2] = assay type: in vitro ADME; conditions: 64800 sec, […], pH 7.4
Experimental: Materials. The assay was carried out using Multiscreen PVDF 96-well plates (Millipore, Billerica, Mass.) using the company's Transporter Receiver Plate. The lipid (dioleyoylphosphotidylcholine (DOPC):Stearic Acid (80:20, wt %) in dodecane was obtained from Avanti Polar lipids (Alabaster, Ala.). Hank's Buffered Salt Solution (HBSS), pH 7.4 was obtained from MediaTech (Manassas, Va.).
Methods. Each of the test compounds was diluted to 2.5 mM in DMSO (Sigma, St Louis, Mo.) and further diluted prior to testing to 2.5 μM in HBSS, pH 7.4. The assay was performed using a Millipore 96-well Multiscreen-IP PAMPA plate, 5 μl of the lipid suspension was directly added to the PVDF membrane of the filter plate. Immediately following the addition of the lipid to the membrane, 200 μl of HBSS solution containing the test compound was added to the donor (upper) chamber. HBSS (300 μl) is also added to the receiver plate and the filter and receiver plates assembled and incubated overnight at room temperature in a moistened sealed bag to prevent evaporation. The concentration in the receiver plate as well as an equilibrium plate, that represents a theoretical, partition-free sample, was determined by HPLC-tandem mass spectrometry. Analysis of each compound was performed in triplicate.
Analysis. Analysis of both the acceptor and equilibrium samples were performed using an AB 3200 triple quadripole mass spectrometer linked to a Shimadzu DGU-20A HPLC with a Prevail C18 column (3 μm, 2.1×10 mm) with a flow rate of 0.35 ml/min. The mobile phase used was A: 0.1% Formic Acid in water, B: 0.1% Formic Acid in methanol. The elation gradient method is described in the table. Data acquisition and peak height determination was performed using Analyst v.1.4.2.
Calculations. The login of the effective permeability (LogPe) was calculated using the following equation
[formula] [formula] Where the drug concentration is the peak areas for the analyte and VD and VA is the volume of the donor and acceptor compartment respectively. The area is the surface area of the PVDF membrane (0.11 cm^2) and time is the incubation in seconds (64,800 sec). Each value is the mean of triplicates performed on the same day.

[3] = Mouse urine pharmacokinetics of mannosides (LC-MS); conditions: in vivo
Experimental: Pharmacokinetic (PK) studies with ZFH-2056 evaluated in vivo dosing conditions after intraperitoneal (IP) injection or oral (PO) gavage. ZFH-2056 was dosed IP and compound levels in the urine were evaluated at several timepoints by HPLC using mass spectrometry (MS) detection. […] Since oral dosing is the desired route of delivery, we next evaluated the concentration of drug after 100 mg/kg PO of ZFH-2056.
(§1) Pharamacokinetic analysis. For intraperitoneal dosing, 50 μl of a 2 mg/ml (5 mg/kg) or 4 mg/ml (10 mg/kg) solution of ZFH-2056 in PBS was injected into the peritoneal cavity of the mouse. For oral dosing, 100 μl of a 20 mg/ml (100 mg/kg) solution of ZFH-2056 in 8% DMSO was inoculated with a gavage needle into the mouse stomach. Urine was collected at 30 min, 1, 2, 3, 4, 6, and 8 h post-treatment. An equal volume of 10 μM internal standard (ZFH-2050) was added to the urine. Mannosides were extracted from the urine by loading on C18 columns (100 mg, Waters), washing with 30% methanol, and eluting with 60% methanol. […] Absolute quantification was achieved by comparison to a calibration curve.
as §1, with “For” for “Pharamacokinetic analysis. For intraperitoneal dosing, 50 μl of a 2 mg/ml (5 mg/kg) or 4 mg/ml (10 mg/kg) solution of ZFH-2056 in PBS was injected into the peritoneal cavity of the mouse. For”

T1 sequence (P08191 22-179): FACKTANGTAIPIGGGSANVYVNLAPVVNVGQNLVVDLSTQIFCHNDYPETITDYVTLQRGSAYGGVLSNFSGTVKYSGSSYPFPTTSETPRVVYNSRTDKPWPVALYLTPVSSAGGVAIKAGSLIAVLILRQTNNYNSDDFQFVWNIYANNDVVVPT
T2 sequence (P08191 22-179): as above

| SMILES | Kd, qualitative (FimH lectin domain) | Kd (FimH lectin domain; Table 20, read-out: Octet Kd) | DSF Melting Temp. [1] | PAMPA (LogPe) [2] | drug cleared to the urine intact / unchanged [3] | hydrolysis products (D-mannose and phenol) in urine [3] | level in urine ([3]; ip) |
| --- | --- | --- | --- | --- | --- | --- | --- |
| COC(=O)c1cccc(-c2ccc(O[C@H]3O[C@H](CO)[C@@H](O)[C@H](O)[C@@H]3O)cc2)c1 [Compound 1, phenyl mannoside, reference compound] | picomolar range | 0.08 nM | 73.39 °C | −5.42 | – | – | – |
| CNC(=O)c1cc(C(=O)NC)cc(-c2ccc(O[C@H]3O[C@H](CO)[C@@H](O)[C@H](O)[C@@H]3O)cc2)c1 [ZFH-2056] | – | – | – | – | > 95% | < 5% | ≤ 740 nM |
